# Literature values in patent US10983136B2 (DiaSorin S.p.A., priority 2013, dated 2021).
# Tests used:
# [1] = in circulation, under normal circumstances
# [2] = molecular target: T1, vitamin D binding protein (DBP) (Homo sapiens, UniProt P02774); conditions: same pH value (above 6, preferably above 7)
# T1 sequence (P02774 17-474): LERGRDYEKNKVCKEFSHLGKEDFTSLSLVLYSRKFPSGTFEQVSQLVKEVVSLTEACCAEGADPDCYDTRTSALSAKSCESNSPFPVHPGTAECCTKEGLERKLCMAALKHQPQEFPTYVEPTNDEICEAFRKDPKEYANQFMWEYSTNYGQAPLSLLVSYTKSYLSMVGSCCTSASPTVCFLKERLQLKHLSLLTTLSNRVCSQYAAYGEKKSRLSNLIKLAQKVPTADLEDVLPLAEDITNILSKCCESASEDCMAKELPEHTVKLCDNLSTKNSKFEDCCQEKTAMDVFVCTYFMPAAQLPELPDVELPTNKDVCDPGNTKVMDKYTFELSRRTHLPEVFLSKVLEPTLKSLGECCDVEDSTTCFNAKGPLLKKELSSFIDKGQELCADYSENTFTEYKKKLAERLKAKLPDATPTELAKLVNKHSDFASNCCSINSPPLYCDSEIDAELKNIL
# [3] = molecular target: T1, vitamin D binding protein (DBP); conditions: association constant
free form [1],"greater affinity of DBP for 25(OH)D over 1,25(OH)2D [2]",Compound,Ka (affinity of DBP) [3] [M⁻¹]
approximately 0.4%,–,"C=C1/C(=C\C=C2/CCC[C@]3(C)[C@@H]([C@H](C)CCCC(C)(C)O)CC[C@@H]23)C[C@@H](O)C[C@@H]1O [1,25(OH)2D, 1,25-dihydroxyvitamin D]",–
approximately 0.03%,about 1000 fold,"C=C1CC[C@H](O)C/C1=C/C=C1\CCC[C@]2(C)[C@@H]([C@H](C)CCCC(C)(C)O)CC[C@@H]12 [25(OH)D, 25-hydroxyvitamin D]",5e+08
–,–,vitamin D,4e+07
